Test results taken from patent US4229435A, “Preparation of blood fraction” (priority 1978, dated 1980).

How the values were obtained:
F VIII = biological target: T1, F VIII (Homo sapiens, UniProt P00451); assay: Coagulation factor VIII activity in plasma after reducing agent + iodoacetic acid; assay type: biochemical; settings: 5 min 37° C., then iodoacetic acid
T1 construct: from tissue; host or cells: human citrated blood plasma
T1 sequence (P00451 20-1332 limits assumed): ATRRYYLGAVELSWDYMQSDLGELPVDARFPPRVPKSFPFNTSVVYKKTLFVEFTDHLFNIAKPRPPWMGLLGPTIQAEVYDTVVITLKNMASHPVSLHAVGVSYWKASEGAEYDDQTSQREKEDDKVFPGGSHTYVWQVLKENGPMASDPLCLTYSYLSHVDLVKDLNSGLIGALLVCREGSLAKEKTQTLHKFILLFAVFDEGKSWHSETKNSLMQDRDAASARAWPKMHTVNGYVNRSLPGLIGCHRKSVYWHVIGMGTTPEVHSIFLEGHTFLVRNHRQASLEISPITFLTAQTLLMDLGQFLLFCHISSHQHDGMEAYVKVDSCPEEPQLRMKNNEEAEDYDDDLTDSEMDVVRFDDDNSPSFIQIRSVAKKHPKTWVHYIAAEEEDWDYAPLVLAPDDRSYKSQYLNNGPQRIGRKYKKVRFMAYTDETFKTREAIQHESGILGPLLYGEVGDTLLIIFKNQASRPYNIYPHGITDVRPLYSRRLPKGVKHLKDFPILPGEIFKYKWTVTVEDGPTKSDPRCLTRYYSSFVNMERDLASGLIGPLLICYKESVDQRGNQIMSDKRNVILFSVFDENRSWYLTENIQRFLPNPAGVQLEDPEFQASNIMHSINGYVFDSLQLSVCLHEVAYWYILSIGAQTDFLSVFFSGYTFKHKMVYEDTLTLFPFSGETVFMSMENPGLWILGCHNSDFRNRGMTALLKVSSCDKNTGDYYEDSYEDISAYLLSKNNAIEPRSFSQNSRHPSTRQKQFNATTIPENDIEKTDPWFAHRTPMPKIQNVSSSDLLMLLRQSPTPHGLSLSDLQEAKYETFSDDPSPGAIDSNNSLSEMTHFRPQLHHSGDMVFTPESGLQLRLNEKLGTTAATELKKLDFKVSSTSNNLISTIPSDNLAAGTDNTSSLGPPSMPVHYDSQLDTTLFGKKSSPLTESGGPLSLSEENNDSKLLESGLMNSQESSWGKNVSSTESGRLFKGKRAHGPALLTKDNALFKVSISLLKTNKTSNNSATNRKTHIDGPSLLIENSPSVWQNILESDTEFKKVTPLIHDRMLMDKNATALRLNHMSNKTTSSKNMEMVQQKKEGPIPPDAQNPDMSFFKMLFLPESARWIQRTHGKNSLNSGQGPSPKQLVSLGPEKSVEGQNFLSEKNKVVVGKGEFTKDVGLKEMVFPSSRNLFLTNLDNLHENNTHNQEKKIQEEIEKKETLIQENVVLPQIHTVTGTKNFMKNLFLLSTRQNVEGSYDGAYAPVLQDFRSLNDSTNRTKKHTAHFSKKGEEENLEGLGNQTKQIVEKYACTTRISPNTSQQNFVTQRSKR
T1 sequence (P00451 1668-2351 limits assumed): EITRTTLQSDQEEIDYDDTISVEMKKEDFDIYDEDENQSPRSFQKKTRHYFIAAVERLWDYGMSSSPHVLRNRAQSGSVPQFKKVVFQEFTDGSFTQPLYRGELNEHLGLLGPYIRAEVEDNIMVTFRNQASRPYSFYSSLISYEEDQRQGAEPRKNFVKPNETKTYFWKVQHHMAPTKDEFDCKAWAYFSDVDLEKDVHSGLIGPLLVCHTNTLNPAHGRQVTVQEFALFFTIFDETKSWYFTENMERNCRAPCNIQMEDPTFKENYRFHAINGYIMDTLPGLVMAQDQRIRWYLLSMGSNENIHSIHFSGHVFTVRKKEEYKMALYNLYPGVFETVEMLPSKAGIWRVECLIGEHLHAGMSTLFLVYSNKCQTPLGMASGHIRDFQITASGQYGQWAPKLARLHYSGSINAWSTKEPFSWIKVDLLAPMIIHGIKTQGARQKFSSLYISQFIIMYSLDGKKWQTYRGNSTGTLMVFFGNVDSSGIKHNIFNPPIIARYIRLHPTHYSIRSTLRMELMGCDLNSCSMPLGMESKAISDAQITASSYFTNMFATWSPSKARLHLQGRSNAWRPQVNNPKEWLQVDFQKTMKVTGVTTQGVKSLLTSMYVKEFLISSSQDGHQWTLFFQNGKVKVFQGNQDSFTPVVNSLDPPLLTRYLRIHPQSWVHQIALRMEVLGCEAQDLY
Method: (§1) Human blood with anti-coagulating agent (9 parts blood+1 part 3.8% trisodium citrate) is centrifuged and the following tests with plasma were carried out:
(§2) The plasma is divided into 8 ml portions, which are preheated at 37° C. for 5 min. DTT is added in different concentrations, see table 1 below, and is incubated for 5 min. at 37° C. Then iodoacetic acid, 3 mol per mol DTT, is added, and incubation takes place for 15 min. at 37° C. The plasma samples are distributed in portions of about 0.2 ml and are immediately frozen at -70° C. Testing of different coagulation factors is made in known manner.
(§3) The plasma is divided into 8 ml portions, which are preheated at 37° C. for 5 min. DTE is added in different concentrations (see table 2), and is incubated for 5 minutes at 37° C. Then, iodoacetic acid (3 mol per mol DTE) is added and incubation is carried out for 15 minutes at 37° C. The plasma samples are distributed in portions of about 0.2 ml and are immediately frozen at -70° C. Testing of different coagulation factors is made in a manner known per se.
as §3, with “minutes. Lipoic acid” for “min. DTE”, “3),” for “2),”, “lipoic acid)” for “DTE)”
as §3, with “minutes. Mercaptoethanol” for “min. DTE”, “4),” for “2),”, “mercaptoethanol)” for “DTE)”
as §3, with “minutes. Potassium borohydride” for “min. DTE”, “5,” for “2),”, “potassium borohydride)” for “DTE)”

F X = biological target: T2, F X (Homo sapiens, UniProt P00742); assay: Coagulation factor X activity in plasma after reducing agent + iodoacetic acid; assay type: biochemical; settings: 5 min 37° C., then iodoacetic acid
T2 construct: from tissue; host or cells: human citrated blood plasma
T2 sequence (P00742 235-488 limits assumed): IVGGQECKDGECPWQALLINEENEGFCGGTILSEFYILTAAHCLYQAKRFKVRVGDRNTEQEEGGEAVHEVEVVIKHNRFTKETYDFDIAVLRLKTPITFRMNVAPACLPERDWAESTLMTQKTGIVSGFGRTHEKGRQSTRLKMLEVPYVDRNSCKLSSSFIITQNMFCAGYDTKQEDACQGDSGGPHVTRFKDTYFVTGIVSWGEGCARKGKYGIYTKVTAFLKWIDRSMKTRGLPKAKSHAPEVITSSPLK
T2 sequence (P00742 41-179 limits assumed): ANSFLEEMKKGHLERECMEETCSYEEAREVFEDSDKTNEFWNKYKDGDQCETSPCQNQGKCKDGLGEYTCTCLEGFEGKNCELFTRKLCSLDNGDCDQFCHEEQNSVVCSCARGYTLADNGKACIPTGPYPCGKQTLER
Method: as §1, §2, §3
as §3, with “minutes. Lipoic acid” for “min. DTE”, “3),” for “2),”, “lipoic acid)” for “DTE)”
as §3, with “minutes. Mercaptoethanol” for “min. DTE”, “4),” for “2),”, “mercaptoethanol)” for “DTE)”
as §3, with “minutes. Potassium borohydride” for “min. DTE”, “5,” for “2),”, “potassium borohydride)” for “DTE)”

[1] = human, 0.1 mg reducing agent/ml plasma (sample C)
[2] = human, 0.6 mg reducing agent/ml plasma
[3] = human, Table 1 sample D, 0.1 mg DTT/ml plasma
[4] = plasma + 0.14 mg reducing agent
[5] = plasma + 0.28 mg reducing agent

| Compound | activity at 100 µg/mL (F VIII; [1]) [%] | Coagulation factor F VIII (F VIII; plasma + 0.2 mg reducing agent) | Coagulation factor F VIII (F VIII; plasma + 0.4 mg reducing agent) | activity at 100 µg/mL (F X; [1]) [%] | Coagulation factor F X (F X; plasma + 0.2 mg reducing agent) | Coagulation factor F X (F X; plasma + 0.4 mg reducing agent) | activity at 600 µg/mL (F VIII; [2]) [%] | activity at 100 µg/mL (F VIII; [3]) [%] | activity at 600 µg/mL (F X; [2]) [%] | activity at 100 µg/mL (F X; [3]) [%] | Coagulation factor F VIII (F VIII; [4]) | Coagulation factor F VIII (F VIII; [5]) | Coagulation factor F X (F X; [4]) | Coagulation factor F X (F X; [5]) |
| --- | --- | --- | --- | --- | --- | --- | --- | --- | --- | --- | --- | --- | --- | --- |
| O[C@H](CS)[C@@H](O)CS [DTE, dithioerythritol] | 108 | 116 % of control | 93 % of control | 56 | 11 % of control | 2 % of control |  |  |  |  |  |  |  |  |
| O[C@H](CS)[C@H](O)CS [DTT, dithiothreitol] | 107 |  | 52 % of control | 59 |  | 0 % of control | 27 | 86 | 0 | 6 |  |  |  |  |

Now from value to compound:

| activity at 100 µg/mL (F VIII; [1]) [%] | Coagulation factor F VIII (F VIII; plasma + 0.2 mg reducing agent) | Coagulation factor F VIII (F VIII; plasma + 0.4 mg reducing agent) | activity at 100 µg/mL (F X; [1]) [%] | Coagulation factor F X (F X; plasma + 0.2 mg reducing agent) | Coagulation factor F X (F X; plasma + 0.4 mg reducing agent) | activity at 600 µg/mL (F VIII; [2]) [%] | activity at 100 µg/mL (F VIII; [3]) [%] | activity at 600 µg/mL (F X; [2]) [%] | activity at 100 µg/mL (F X; [3]) [%] | Coagulation factor F VIII (F VIII; [4]) | Coagulation factor F VIII (F VIII; [5]) | Coagulation factor F X (F X; [4]) | Coagulation factor F X (F X; [5]) | Compound |
| --- | --- | --- | --- | --- | --- | --- | --- | --- | --- | --- | --- | --- | --- | --- |
|  |  |  |  |  |  |  |  |  |  | 122 % of control | 105 % of control | 86 % of control | 68 % of control | [BH4-].[K+] [KBH4, potassium borohydride] |
| 111 | 98 % of control | 111 % of control | 40 | 26 % of control | 32 % of control |  |  |  |  |  |  |  |  | O=C(O)CCCCC1CCSS1 (stereo not shown) [lipoic acid] |
|  | 98 % of control | 85 % of control |  | 75 % of control | 37 % of control |  |  |  |  |  |  |  |  | OCCS [mercaptoethanol] |
